The values that follow come from publication PMC8217266 (Clinical Pharmacology and Therapeutics, 2021).

Data set [1] deals with transporters at major organ sites. In words: Prediction of transporter-mediated inhibition / DDI potential. On the set-up: species or system human. Particulars: of 11 transporters; FDA criteria.
The target in a further data set is T1, human MATE1 (Homo sapiens, UniProt Q96FL8).
T1 sequence (Q96FL8 1-570): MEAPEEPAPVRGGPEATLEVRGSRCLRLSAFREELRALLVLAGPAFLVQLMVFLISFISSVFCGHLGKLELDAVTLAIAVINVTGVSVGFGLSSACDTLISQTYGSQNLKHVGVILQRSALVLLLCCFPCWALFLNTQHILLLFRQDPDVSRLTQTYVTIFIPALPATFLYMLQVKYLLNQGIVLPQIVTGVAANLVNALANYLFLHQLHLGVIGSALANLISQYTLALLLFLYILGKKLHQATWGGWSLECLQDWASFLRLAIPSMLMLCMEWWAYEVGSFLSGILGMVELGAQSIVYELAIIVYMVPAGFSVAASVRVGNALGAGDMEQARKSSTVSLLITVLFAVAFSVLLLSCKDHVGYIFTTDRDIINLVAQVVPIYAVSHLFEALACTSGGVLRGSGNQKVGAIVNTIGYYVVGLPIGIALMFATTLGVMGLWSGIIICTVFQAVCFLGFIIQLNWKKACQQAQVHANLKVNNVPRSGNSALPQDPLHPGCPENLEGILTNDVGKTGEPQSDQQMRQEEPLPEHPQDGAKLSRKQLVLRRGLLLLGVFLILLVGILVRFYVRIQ
The experiment in a line: cell-based.

For the next data set, the target named is T2, human OAT1 (Homo sapiens, UniProt Q4U2R8).
T2 sequence (Q4U2R8 1-563): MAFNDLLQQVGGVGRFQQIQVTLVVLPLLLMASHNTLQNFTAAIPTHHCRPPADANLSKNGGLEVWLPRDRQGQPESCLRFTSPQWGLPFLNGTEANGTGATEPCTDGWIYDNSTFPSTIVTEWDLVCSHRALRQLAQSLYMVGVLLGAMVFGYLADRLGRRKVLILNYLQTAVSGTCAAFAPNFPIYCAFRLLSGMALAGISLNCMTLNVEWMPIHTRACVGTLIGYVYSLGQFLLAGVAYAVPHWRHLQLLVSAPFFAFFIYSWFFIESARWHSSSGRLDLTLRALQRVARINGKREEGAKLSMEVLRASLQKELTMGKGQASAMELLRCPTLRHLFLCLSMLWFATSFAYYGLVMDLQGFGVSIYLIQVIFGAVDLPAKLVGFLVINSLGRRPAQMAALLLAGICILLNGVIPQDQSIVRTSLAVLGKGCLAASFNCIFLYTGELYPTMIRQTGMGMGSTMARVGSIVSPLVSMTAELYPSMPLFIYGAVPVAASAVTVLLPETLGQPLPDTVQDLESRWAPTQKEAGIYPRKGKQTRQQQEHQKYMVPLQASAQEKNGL
The experiment in a line: cell-based.

The next data set deals with T3, BCRP (Homo sapiens, UniProt Q9UNQ0).
T3 sequence (Q9UNQ0 1-655): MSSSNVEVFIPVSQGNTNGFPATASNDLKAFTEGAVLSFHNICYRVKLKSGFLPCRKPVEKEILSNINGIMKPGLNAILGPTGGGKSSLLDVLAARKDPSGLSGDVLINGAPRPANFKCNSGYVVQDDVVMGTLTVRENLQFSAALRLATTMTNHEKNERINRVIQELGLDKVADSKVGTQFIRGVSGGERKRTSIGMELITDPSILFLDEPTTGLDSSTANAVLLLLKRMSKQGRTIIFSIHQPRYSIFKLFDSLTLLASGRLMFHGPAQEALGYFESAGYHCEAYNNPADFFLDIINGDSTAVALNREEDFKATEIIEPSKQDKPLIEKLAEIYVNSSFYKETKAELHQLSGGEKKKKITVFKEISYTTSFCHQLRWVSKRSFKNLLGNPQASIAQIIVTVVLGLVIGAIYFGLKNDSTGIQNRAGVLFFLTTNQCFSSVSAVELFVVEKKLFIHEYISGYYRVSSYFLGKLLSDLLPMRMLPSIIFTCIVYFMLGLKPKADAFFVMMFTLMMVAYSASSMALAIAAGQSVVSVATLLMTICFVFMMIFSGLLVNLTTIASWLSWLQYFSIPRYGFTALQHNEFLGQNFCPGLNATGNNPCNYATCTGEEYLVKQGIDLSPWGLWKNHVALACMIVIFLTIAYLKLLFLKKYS
The experiment in a line: biochemical.

A further data set concerns the target T4, human OCT2 (Homo sapiens, UniProt O15244).
T4 sequence (O15244 1-555): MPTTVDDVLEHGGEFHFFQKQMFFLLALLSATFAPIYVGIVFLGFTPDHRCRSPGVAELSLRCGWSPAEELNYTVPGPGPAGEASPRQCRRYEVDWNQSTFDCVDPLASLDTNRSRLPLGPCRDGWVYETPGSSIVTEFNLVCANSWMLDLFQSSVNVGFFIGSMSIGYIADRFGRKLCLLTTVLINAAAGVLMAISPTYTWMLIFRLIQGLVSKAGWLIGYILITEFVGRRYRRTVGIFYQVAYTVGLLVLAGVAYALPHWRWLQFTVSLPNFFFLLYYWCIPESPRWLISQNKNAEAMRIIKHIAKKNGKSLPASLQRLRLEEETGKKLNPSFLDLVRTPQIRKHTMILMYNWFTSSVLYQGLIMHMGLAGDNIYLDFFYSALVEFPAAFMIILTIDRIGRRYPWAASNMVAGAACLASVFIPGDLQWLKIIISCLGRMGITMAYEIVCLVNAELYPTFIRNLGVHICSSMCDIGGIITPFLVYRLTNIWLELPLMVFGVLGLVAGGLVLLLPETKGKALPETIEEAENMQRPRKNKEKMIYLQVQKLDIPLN
In words: cell-based. Particulars: IC50 OCT2, experimental, mean ± SD; substrate metformin.

For `CC(C)CN(C[C@@H](O)[C@H](Cc1ccccc1)NC(=O)O[C@H]1CO[C@H]2OCC[C@H]21)S(=O)(=O)c1ccc(N)cc1` [Darunavir], in data set [1], the “No. of transporters at major organ sites inhibited at clinical concentrations” value is listed as 5. Besides, the half-maximal inhibitory concentration (IC50) on human MATE1 was 43.8 ± 14.4 µM; at human OAT1, 95 µM; at BCRP, greater than 100 µM.
Consider `CCC(CC)COC(=O)[C@H](C)N[P@](=O)(OC[C@H]1O[C@@](C#N)(c2ccc3c(N)ncnn23)[C@H](O)[C@@H]1O)Oc1ccccc1` [Remdesivir], for which the “No. of transporters at major organ sites inhibited at clinical concentrations” value in data set [1] is 4. For the same compound, the 50% inhibitory concentration (IC50) at human MATE1 is 0.4 ± 0.1 µM; on human OAT1, greater than 100 µM; on BCRP it was 25 ± 6 µM.
For the compound `N#CC[C@H](C1CCCC1)n1cc(-c2ncnc3[nH]ccc23)cn1` [Ruxolitinib], the “No. of transporters at major organ sites inhibited at clinical concentrations” value in data set [1] is reported as 1. Besides, the IC50 is 10.7 ± 3.7 µM against human OCT2, 0.7 ± 0.01 µM against human MATE1, greater than 100 µM at human OAT1 and greater than 100 µM against BCRP.
`CCCc1nn(C)c2c(=O)[nH]c(-c3cc(S(=O)(=O)N4CCN(C)CC4)ccc3OCC)nc12` [Sildenafil]: the “No. of transporters at major organ sites inhibited at clinical concentrations” value in data set [1] is reported as 4. Besides, the half-inhibitory concentration (IC50) was 68 ± 20.1 µM on human OCT2, 2.4 ± 0.1 µM at human MATE1, greater than 100 µM against human OAT1 and 3.1 ± 2.5 µM against BCRP.
The like results for `CCOC(=O)c1c(CSc2ccccc2)n(C)c2cc(Br)c(O)c(CN(C)C)c12` [Umifenovir (Arbidol), Umifenovir] were, in that order, 6, 14.9 ± 4.9 µM, 0.7 ± 0.2 µM, greater than 100 µM and greater than 100 µM.
